Data reported in patent US10583109B2, “Use of silver(I) complexes as anticancer agents” (University of Johannesburg, priority 2012, dated 2020).

Test system: SNO-oesophageal cancer cells
Assay: Flow cytometric analysis (Annexin-V FITC / PI) of apoptosis and/or necrosis in SNO-oesophageal cancer cells
Assay type: cell-based
Details: 10 μM
Method: To determine if either apoptosis or necrosis occurred, the cells were double labelled with Annexin-V FITC and Propidium Iodide (PI) by means of an Annexin-V FITC assay kit (Serotec, UK). This was done according to manufacturer's instructions with a few adjustments. Briefly, the cells (±3×10^5 cells/ml) were washed twice with cold phosphate buffered saline (PBS), followed by the addition of 100 μl 1× binding buffer. Two and a half microliters of Annexin-V along with 5 μl PI were added in the dark and was incubated for 15 minutes at room temperature. After incubation, 400 μl 1× binding buffer was added and cells were analysed using the FACSAria flow cytometer (BD Biosciences, San Jose, Calif.) with FACSDiva software (BD Biosciences, San Jose, Calif.) 492 nm (excitation) and 520 nm for Annexin and 488 nm and 575 nm(emission) for PI.
The cell membrane contains a negatively charged phosphatidylserine (PS) on the inner leaflet and is exposed when apoptosis or necrosis takes place. Annexin-V interacts with PS in both apoptotic and necrotic cells, making these cellular deaths undistinguishable. This is overcome by using PI as an alternative label that interacts with the exposed DNA of necrotic cells only, leading to the fluorescent detection of both these labels. Pie charts (FIG. 9) were constructed for all the controls (including Ligand-1 to Ligand-5) and the different silver(I) thiocyanate phosphine complexes (1)-(5).
Pie charts representing the four different flow cytometric quadrants of Annexin-V and […] to determine the mode of cellular death induced in differentially treated SNO-oesophageal cells are represented in FIG. 9. An untreated control (A), apoptotic control (B) and necrotic control (C) were included. Cells were treated with 10 μM of the different ligands including the silver(I) thiocyanate phosphine complexes (1)-(5). An average percentage was calculated for all segments where the SEM is n=3 for all treatments except for 15% H2O2 (n=2). The four segments represent the following: White segment—negative for FITC and PI, Light grey segment—positive for FITC but negative for PI, Dark grey segment—positive for PI but negative for FITC and Black segment—positive for both FITC and PI. Cells undergoing early apoptosis are represented by the light grey segment, while those of late apoptosis and primary necrosis are represented by the black segment. Necrotic cells are represented by the dark grey segment and intact viable cells are shown by the white segment.
Approximately 3×10^5 cells were washed with ice cold phosphate buffered saline solution (PBS). The cells were double labeled using an Annexin-V FITC assay kit adjusting the protocol. A 1× binding buffer (100 μl) was used to fix the cells. Annexin-V (2.5 μl) and Propidium Iodide (PI—5 μl) labels were added respectively followed by a 15 minute incubation, at room temperature, in the dark. After the incubation period, 400 μl of the 1× binding buffer was added, where counting of the cellular events was made using an FACSAria flow cytometer (BD Biosciences, San Jose, Calif.) with FACSDiva software (BD Biosciences, San Jose, Calif.). This technique in particular identifies whether predicted apoptotic cell death (or necrosis) was induced by these complexes.
As observed in FIG. 14, dot blots represent the mode of cellular death induced in the SNO-oesophageal cancer cells after 24 hours of treatment. FIG. 14(a): 0.1% DMSO, FIG. 14(b): 100 μM CDDP, FIG. 14(c): 25% H2O2, FIG. 14(d-i): complexes (6)-(9). An average percentage was calculated for all quadrants where the SEM is n=2 for all treatments. The four quadrants represent the following: Quadrant Q3 is negative for FITC and PI, Quadrant Q4 is positive for FITC but negative for PI, Quadrant Q1 is positive for PI but negative for FITC and Quadrant Q2 is positive for both FITC and PI. Cells undergoing early apoptosis are more likely to be found in Quadrant Q4 while those of late apoptosis and primary necrosis will be found in Quadrant Q2. […]

Compound: C1#[N+][Ag]([P+](c2ccccc2)(c2ccccc2)c2ccccc2)([P+](c2ccccc2)(c2ccccc2)c2ccccc2)[S]C#[N+][Ag]([P+](c2ccccc2)(c2ccccc2)c2ccccc2)([P+](c2ccccc2)(c2ccccc2)c2ccccc2)[S]1 [complex (1), [AgSCN(PPh3)2]2]
- viable cells (flow cytometry) (24 hour treatment): ~57.47%

Compound: c1ccc([P+](c2ccccc2)(c2ccccc2)[Ag+]([P+](c2ccccc2)(c2ccccc2)c2ccccc2)([P+](c2ccccc2)(c2ccccc2)c2ccccc2)[P+](c2ccccc2)(c2ccccc2)c2ccccc2)cc1 [complex (9), AgNO3(PPh3)4]
- apoptotic cell death (flow cytometry, Q4 and Q2) (24 hours of treatment): 15.3%

Compound: [AgSCN{P(4-FC6H4)3}2]2 [complex (3)]
- cancer cells in which apoptosis was induced (flow cytometry) (24 hour treatment): more than half
- viable cells (flow cytometry) (24 hour treatment): approximately 28%
